Measurements from US7892350B2, “Sacrificial agents for fly ash concrete” (Boral Material Technologies Inc., priority 2003, dated 2011).
Like-named read-outs stand apart in the source and are kept apart here.

Experiment: Second sacrificial agent testing protocol: paste air measurements with DDBS (0.0125 wt %) and rating; as to Overall performance rating (second protocol rating): key: 0: Fail; 1: Poor; 2: Good; 3: Preferred; 4: Most preferred; as to SA Rating (0-4): key: 0: Fail; 1: Poor; 2: Good; 3: Preferred; 4: Most preferred
Method: The second sacrificial agents evaluation protocol has been designed to assess the relative potential value of candidate sacrificial agents with a maximum of five paste air measurements.
The first two measurements (of entrained air) are carried out with a standard AEA in a portland cement paste and in a FA:cement paste; these two tests provide reference values which can be used for the relative assessment of a series of sacrificial agents. The other three paste air measurements pertain to the properties and effectiveness of the sacrificial agents.
1. Measurement of the air entrained by a standard air-entraining admixture in a cement paste of fixed composition and fluidity; the latter is a reference system which provides ‘reference’ air entrainment values (‘A’ in FIG. 8).
2. […] The difference between ‘B’ and ‘A’ in FIG. 8 is the reduction in air entrainment due to the presence of the fly ash; this is illustrated as ‘C’ in FIG. 8.
In the present SA testing and evaluation protocol, the fly ash selected should remain the same for the entire set of additives tested, in order to provide reliable relative performance ranking. For the present series of test, the Fly Ash selected was the one identified as B1 in Table 1 below; the physico-chemical properties of this fly ash are reported in Table 1.
In testing for the relative performance of the sacrificial agent, the sacrificial agent dosage was chosen in the range 0-0.1 wt %, which corresponds to typical dosage values observed in paste, mortar and concrete tests reported in Tables 2, 3 and 4 and Tables 7 to 34.
3. Measurement of the air entrainment of the SA, by itself, in a cement-only paste at a dosage of 0.1 wt %; this is illustrated as ‘D’ in FIG. 8.
4. Measurement of the air entrained by DDBS in the FA-cement paste comprising 0.05% wt SA, under the same conditions as described in 2 above. The air entrainment value observed in this system, compared to that observed in the absence of the SA, yields the air recovery due to the SA, and is illustrated schematically as ‘E’ in FIG. 8.
5. Same as in 4 above, but with a higher SA concentration at 0.1 wt %; the air entrainment observed, again compared to the value observed in the absence of the SA, yields a second value of air recovery by the SA and is illustrated as ‘F’ in FIG. 8.
For the relative performance rating of the group of products chosen as potential SA and listed in Table 36, the following rating scheme (Tables A and B) was adopted (referring to FIG. 8 and quantities defined therein):
1: Chemical name of compound tested as potential sacrificial agent • Col. 2: Level of air entrainment by the candidate sacrificial agent, at a concentration of 0.1 wt %, in a Portland cement paste ([…]) • Col. […] 5: Sacrificial agent overall rating index (described below) • Col. 6: Hydrophilic-Lipophilic Balance (HLB) values of candidate sacrificial agent (source and significance of HLB data given below) • Col. 7: Logarithm of the Oil(octanol)/water partition coefficient (Kow) of the candidate sacrificial agents (source and significance of data given below).

[1] = Portland cement paste (PCA), […]
[2] = sacrificial agent overall rating index
[3] = B1 FA/cement paste, 0.0125 wt % DDBS, 0.05 wt % SA
[4] = B1 FA/cement paste, 0.0125 wt % DDBS, 0.10 wt % SA
[5] = sum of ratings of air entrainment recovery by 0.05% and 0.1% SA, DDBS 0.0125 wt %, 50:50 B1 fly ash:cement paste

Row | Compound | Overall performance rating (second protocol rating) | B1 + 0.0125% DDBS + 0.1% SA (air entrainment) (B1 FA/cement paste, […]) | PCA + 0.1% SA (level of air entrainment by the candidate sacrificial agent) [1] | SA Rating (0-4) [2] | B1 + 0.0125% DDBS + 0.05% SA (air entrainment) (B1 FA/cement paste, […]) | further results
1 | NC(N)=O [Urea] | 2 | 2.0 | 0.1 | 2 |  | 
2 | CC(C)(C)O [t-Butanol] | 4 |  |  |  |  | 
3 | CCCC[N+](CCCC)(CCCC)CCCC.[Cl-] [Tetrabutyl ammonium chloride] | 3 |  |  |  |  | B1 + 0.0125% DDBS + 0.05% SA (air entrainment): 4.9; B1 + 0.0125% DDBS + 0.1% SA (air entrainment): 4.1; PCA + 0.1% SA (level of air entrainment by the candidate sacrificial agent): 0.6; SA Rating (0-4): 3
4 | CN1CCCC1=O [1-Methyl-2-Pyrrolidinone] |  |  | 1.9 | 0 |  | B1 + 0.0125% DDBS + 0.05% SA (air entrainment) [3]: 3.6; B1 + 0.0125% DDBS + 0.1% SA (air entrainment) [4]: 3.8
5 | CCCCCCCCCCO [1-Decanol] |  | 1.7 | 0.0 | 0 | 2.1 | 
6 | CCN1CCCC1=O [1-Ethyl-2-Pyrrolidinone] | 3 | 5.6 | 2.5 | 3 | 4.3 | 
7 | Nc1ccccc1 [Aniline] |  |  |  |  |  | Overall performance rating (second protocol rating) [5]: 2
8 | Aniline (Phenylamine) |  | 5.6 | 1.7 | 2 | 3.7 | 
9 | O[C@H]1[C@H](O)[C@@H](O)[C@H](O)[C@@H](O)[C@H]1O [Inositol] |  | 2.1 | 0.1 | 0 | 2.1 | 
10 | NCCOCCO [2-(2-Aminoethoxy)ethanol] |  |  | 0.5 | 1 |  | B1 + 0.0125% DDBS + 0.05% SA (air entrainment) [3]: 3.1; B1 + 0.0125% DDBS + 0.1% SA (air entrainment) [4]: 3.9; Overall performance rating (second protocol rating) [5]: 1
11 | CCCCCCO [Hexanol] | 1 | 2.7 | 0.0 | 1 | 4.2 | 
12 | CC(C)(C)CO [Neopentanol] | 3 | 4.7 | 0.8 | 3 | 4.9 | 
13 | Polyethylene glycol 400 |  |  |  |  |  | Overall performance rating (second protocol rating) [5]: 4
14 | CCc1ccc(S(=O)(=O)O)cc1 [4-Ethyl benzene sulfonic acid] |  |  | 1.3 | 3 |  | B1 + 0.0125% DDBS + 0.05% SA (air entrainment) [3]: 4.8; B1 + 0.0125% DDBS + 0.1% SA (air entrainment) [4]: 6.2; Overall performance rating (second protocol rating) [5]: 3
15 | COP(=O)([O-])OC.[Na+] [Dimethylphosphate Na] |  | 2.7 | 1.3 | 0 | 2.5 | 
16 | CC(O)COc1ccccc1 (stereo not drawn) [Propylene Glycol Phenyl Ether] |  |  | 1.0 | 4 |  | B1 + 0.0125% DDBS + 0.05% SA (air entrainment) [3]: 7.2; B1 + 0.0125% DDBS + 0.1% SA (air entrainment) [4]: 6.7; Overall performance rating (second protocol rating) [5]: 4
17 | OCCOCCOCCO [tri-Ethylene Glycol] | 1 | 4.1 | 0.9 | 1 | 3.1 | 
18 | CC(O)COC(C)COC(C)CO (stereo not drawn) [tri-Propylene glycol] | 4 | 9.2 | 1.6 | 4 | 7.8 | 

Row | Compound | Overall performance rating (second protocol rating) | B1 + 0.0125% DDBS + 0.1% SA (air entrainment) (B1 FA/cement paste, […]) | PCA + 0.1% SA (level of air entrainment by the candidate sacrificial agent) [1] | SA Rating (0-4) [2] | B1 + 0.0125% DDBS + 0.05% SA (air entrainment) (B1 FA/cement paste, […]) | further results
19 | CC(C)O [i-Propanol] | 1 | 4.1 | 2.4 | 1 | 3.7 | 
20 | OCCNCCO [Di-ethanolamine] |  | 2.6 | 0.3 | 0 | 2.7 | 
21 | CCC(C)=O [2-Butanone (Methyl ethyl ketone)] |  | 4.1 | 0.3 | 1 | 3.7 | 
22 | Methylnaphthalene sulfonate Na |  |  |  |  |  | Overall performance rating (second protocol rating) [5]: 4
23 | CC#N [Acetonitrile] |  | 2.5 | 0.5 | 0 | 2.3 | 
24 | O=C(O)c1cc(O)ccc1O [2,5-Dihydroxybenzoic acid] |  | 1.6 | 0.0 | 0 | 1.9 | 
25 | CCO [Ethanol] |  |  |  |  |  | B1 + 0.0125% DDBS + 0.05% SA (air entrainment): 3.1; B1 + 0.0125% DDBS + 0.1% SA (air entrainment): 3.3; PCA + 0.1% SA (level of air entrainment by the candidate sacrificial agent): 1.5; SA Rating (0-4): 0
26 | CCCOCCO [Ethylene Glycol n-Propyl Ether] |  |  | 1.4 | 4 |  | B1 + 0.0125% DDBS + 0.05% SA (air entrainment) [3]: 7.4; B1 + 0.0125% DDBS + 0.1% SA (air entrainment) [4]: 7.4; Overall performance rating (second protocol rating) [5]: 4
27 | P(EG-ran-propylene-glycol) 2500 | 4 |  |  |  |  | 
28 | O=C1OCCO1 [Ethylene carbonate] |  | 1.9 | 0.0 | 0 | 2.5 | 
29 | OCCO [Ethylene Glycol] |  |  |  |  |  | B1 + 0.0125% DDBS + 0.05% SA (air entrainment): 2.4; B1 + 0.0125% DDBS + 0.1% SA (air entrainment): 2.8; PCA + 0.1% SA (level of air entrainment by the candidate sacrificial agent): 0.0; SA Rating (0-4): 0
30 | Cc1ccc(S(=O)(=O)O)cc1 [p-Toluene Sulfonic acid] | 3 | 5.1 | 0.7 | 3 | 3.9 | 
31 | Nc1c(O)cc(S(=O)(=O)[O-])c2ccccc12.[Na+] |  |  | 0.4 | 0 |  | B1 + 0.0125% DDBS + 0.05% SA (air entrainment) [3]: 3.1; B1 + 0.0125% DDBS + 0.1% SA (air entrainment) [4]: 2.9
32 | CCOCCO [Ethylene Glycol Ethyl Ether] | 4 | 6.8 | 1.2 | 4 | 5.0 | 
33 | CCCCOCCO [Ethylene Glycol n-Butyl Ether] | 4 | 9.5 | 2.0 | 4 | 8.8 | 
34 | OCCc1ccccc1 [Phenyl ethyl alcohol] | 3 | 5.5 | 0.7 | 3 | 4.5 | 
35 | CC(O)C(C)O (stereo not drawn) [2,3-Butanediol] |  | 3.7 | 1.2 | 0 | 3.6 | 
36 | CC(O)CN(CC(C)O)CC(C)O (stereo not drawn) [Tri-isopropanolamine] |  | 7.6 | 1.3 | 4 | 5.6 | 
